Experimental data from PMC10495264 (Nature Cell Biology, 2023).
pIC50, pKi: −log10 of the molar value. “And” between values parts separate entries of the source, which are not always exact repeats. Identical values can stand only once. “Also recorded” adds a separate entry of the source.

Columns and labels:
[1] = test system: TORC1; assay: TORC1 activity in yeast cells, p-Sch9^T737/Sch9 immunoblot; assay type: cell-based, Saccharomyces cerevisiae; settings: for p-Sch9(T737)/Sch9 (relative TORC1 activity), Mean: yeast, untreated = 1, n = 4, Fig. 2c
[2] = test system: total protein malonylation; assay: Lysine malonylation in yeast cells, Mal-K/Adh1 immunoblot; assay type: cell-based, Saccharomyces cerevisiae; settings: cerulenin 20 μM, 2 h, wt Ctrl = 1, Fig. 3i
[3] = test system: TORC2; assay: TORC2 activity in yeast cells, p-Ypk1^T662/Ypk1 immunoblot; assay type: cell-based, Saccharomyces cerevisiae; settings: cerulenin 20 μM, 2 h; for p-Ypk1(T662)/Ypk1, Mean: wt Ctrl = 1, Fig. 3f
[4] = test system: Snf1 (yeast AMPK); assay: Snf1 activation in yeast cells, p-Snf1^T210/His immunoblot; assay type: cell-based, Saccharomyces cerevisiae; settings: cerulenin 20 μM, 2 h, wt Ctrl = 1, Fig. 3h
[5] = test system: Mal-CoA levels; assay: fapR/fapOp-yeGFP Mal-CoA reporter system, GFP immunoblot; assay type: cell-based, Saccharomyces cerevisiae; settings: yeast, untreated = 1, n = 4, Fig. 2b
[6] = test system: total protein malonylation; assay: Total protein malonylation (Mal-K immunoblot) in HEK293FT/HEK293T cells; assay type: cell-based, human
Method: For standard SDS–PAGE and immunoblotting experiments, cells from a well of a 12-well plate were lysed in 250 μl of ice-cold Triton lysis buffer (50 mM Tris pH 7.5, 1% Triton X-100, 150 mM NaCl, 50 mM NaF, 2 mM Na-vanadate and 0.011 g ml^−1 β-glycerophosphate) supplemented with 1×PhosSTOP phosphatase inhibitors (cat. no. 4906837001, Roche) and 1×cOmplete protease inhibitors (cat. no. 11836153001, Roche) for 10 min on ice. The samples were clarified by centrifugation (20,000g, 15 min, 4 °C) and the supernatants were boiled in 1×SDS sample buffer (5×SDS sample buffer: 350 mM Tris–HCl pH 6.8, 30% glycerol, 600 mM DTT, 12.8% SDS and 0.12% bromophenol blue). The band intensities were quantified using the ImageJ software.

[7] = test system: RagC lysosomal localization; assay: Co-localization of RagC with LAMP2, confocal microscopy; assay type: cell-based, human; settings: Ceru 4h, mean of individual cells (ED Fig. 8f); DMSO mean 0.563571
[8] = test system: recombinant human MCD (Mal-CoA decarboxylase); settings: read-out: apparent Michaelis constant (Km) of recombinant human MCD for Mal-CoA; cited from earlier work
[9] = target: T1, mTORC1 (Homo sapiens, UniProt P42345); assay: Mammalian mTORC1 kinase activity assays (IVK, 4E-BP1 substrate); assay type: biochemical
T1 construct: endogenous mTORC1 complexes were purified from HEK293FT cells; endogenous in cells; host or cells: HEK293FT (immunoprecipitation of endogenous mTOR); the 4E-BP1 substrate was made in E. coli BL21 RP
Method: Following the last wash step with CHAPS IP wash buffer, the beads were washed once with kinase wash buffer (25 mM HEPES pH 7.4 and 20 mM KCl) and excess liquid was removed using a Hamilton syringe—the final bead volume was approximately 10 μl. Kinase reactions were prepared by adding 10 μl of 3×kinase assay buffer (75 mM HEPES KOH pH 7.4, 60 mM KCl and 30 mM MgCl2) to the beads. […] The reactions were incubated at 30 °C for 30 min, and stopped by the addition of one volume of 2×SDS loading buffer and boiling (5 min, 95 °C). […] Signals were quantified using the gel analysis tool of ImageJ and are shown as the phospho-4E-BP1^T37/46/4E-BP1 ratio.

[10] = target: T2, Src (Homo sapiens, UniProt P12931); assay: Mammalian Src kinase activity assay (IVK, Glo1 substrate); assay type: biochemical; settings: for In vitro kinase assay Src, p-Glo(Y316)/Glo, Mean: 0 mM = 1; for In vitro kinase assay Src, p-Glo(Y316)/Glo: Replicates 1-3, 0 mM = 1 (Ext. Fig. 10g)
T2 construct: purchased ProQinase 0200-0000-1
Method: In vitro assays for phosphorylation of Glo1 by Src were performed as described previously. […] The phosphorylation reaction was stopped by the addition of 2×Laemmli buffer and boiling the samples for 5 min at 95 °C. The samples were run on SDS–PAGE gels and immunoblotted for Src-dependent phosphorylation of Glo1 at Y316 using a homemade antibody.

[11] = test system: T3, Snf1; assay: Yeast Snf1 kinase activity assay (IVK, Mig1 substrate); assay type: biochemical, Saccharomyces cerevisiae; parameters: key to In vitro kinase assay Snf1 / In vitro kinase assay Snf1, Mean: Mig1 phosphorylation signal density relative to 0 mM Mal-CoA (=1); settings: for In vitro kinase assay Snf1, Mean: 0 mM = 1; for In vitro kinase assay Snf1: Replicates 1-3, 0 mM = 1 (Ext. Fig. 10e)
T3 construct: The Snf1 complex was purified from a genomically C-terminally-tagged Snf1 yeast; TAP (C, cleaved yes); made in house; host or cells: S. cerevisiae strain Snf1-TAP (Open Biosystems)
Method: The Snf1 complex was purified from a genomically C-terminally-tagged Snf1 yeast cultured in YPD and washed with water before filtration to induce Snf1 activation. After filtration, the cells were frozen in liquid nitrogen and cryogenically disrupted using a Precellys homogenizer in lysis buffer (50 mM Tris–HCl pH 7.5, 150 mM NaCl, 0.1% NP-40, 10% glycerol, […] and Roche EDTA-free complete protease inhibitor). The cleared lysates were incubated with IgG-coupled Dynabeads (Dynabeads M-270 Epoxy; Invitrogen, Thermo Fisher Scientific) for 2 h at 4 °C. The beads were washed five times with lysis buffer and Snf1 was eluted through cleavage with TEV protease in elution buffer (50 mM Tris–HCl pH 7.5 and 0.5 mM EDTA) and stored at −80 °C after the addition of 10% glycerol. […] To test the effect of Mal-CoA (M4263, Sigma-Aldrich), the kinase reaction was pre-incubated with 2 μl of the compound from a 15× stock solution and threefold serial dilutions for 15 min. […] Proteins were separated by SDS–PAGE and stained with SYPRO Ruby (S4942, Sigma-Aldrich) to assess loading. Substrate phosphorylation was analysed by autoradiography using a Typhoon FLA 9500 phosphorimager (GE Healthcare) and the raw density of the signals was quantified using the gel analysis tool of ImageJ.

T2 sequence (P12931 whole entry): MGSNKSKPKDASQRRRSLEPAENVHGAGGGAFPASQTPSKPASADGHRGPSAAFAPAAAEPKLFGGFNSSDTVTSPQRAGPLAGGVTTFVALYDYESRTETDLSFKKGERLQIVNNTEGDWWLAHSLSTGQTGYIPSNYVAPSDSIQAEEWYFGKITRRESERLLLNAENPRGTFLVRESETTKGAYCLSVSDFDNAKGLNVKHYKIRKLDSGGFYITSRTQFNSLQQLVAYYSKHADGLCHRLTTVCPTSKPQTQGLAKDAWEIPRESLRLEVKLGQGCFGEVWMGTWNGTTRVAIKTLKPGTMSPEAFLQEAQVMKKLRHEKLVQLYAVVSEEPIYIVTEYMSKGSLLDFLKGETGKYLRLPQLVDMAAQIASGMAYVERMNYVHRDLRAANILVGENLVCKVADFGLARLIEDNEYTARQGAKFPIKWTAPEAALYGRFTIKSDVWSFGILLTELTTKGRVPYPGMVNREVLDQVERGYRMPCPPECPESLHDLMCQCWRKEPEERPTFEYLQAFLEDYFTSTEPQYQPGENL

SMILES: C/C=C/C/C=C/CCC(=O)[C@H]1O[C@H]1C(N)=O [cerulenin]
- p-Sch9(T737)/Sch9, Mean [1]: 0.2682 and 0.4097
- TORC1 activity (phosphorylation of Sch9) in vivo ([1]; cerulenin-treated yeast, Fig. 2a,c): strongly reduced
- p-Sch9(T737)/Sch9 (relative TORC1 activity), Mean ([1]; 20 μM cerulenin 2h): 0.4698
- p-Sch9(T737)/Sch9 (relative TORC1 activity), Mean ([1]; 20 μM cerulenin 3h): 0.1772
- p-Sch9(T737)/Sch9 (relative TORC1 activity), Mean ([1]; 20 μM cerulenin 4h): 0.1415
- Mal-K/Adh1, Mean ([2]; acc1S1157A yeast): 8.735
- Mal-K/Adh1, Mean ([2]; wt yeast): 8.631
- p-Ypk1(T662)/Ypk1, Mean ([3]; acc1S1157A yeast): 1.9821
- p-Ypk1(T662)/Ypk1, Mean ([3]; wt yeast): 2.002
- phosphorylation of Ypk1^T662 (TORC2 target residue) ([3]; yeast): did not inhibit
- p-Snf1(T210)/His (Snf1), Mean ([4]; acc1S1157A yeast): 1.0013
- p-Snf1(T210)/His (Snf1), Mean ([4]; wt yeast): 1.229
- GFP/Adh1 (relative Mal-CoA levels), Mean ([5]; 20 μM cerulenin 2h): 2.242
- GFP/Adh1 (relative Mal-CoA levels), Mean ([5]; 20 μM cerulenin 3h): 5.039
- GFP/Adh1 (relative Mal-CoA levels), Mean ([5]; 20 μM cerulenin 4h): 7.957
- Mal-K/Tubulin, Mean ([6]; ED Fig. 6c, relative to Luc): 1.769
- total protein malonylation (Mal-K immunoblot) ([6]; HEK293FT cells, cerulenin treatment): detectable increase
- RagC/LAMP2 colocalization (Manders' coefficient), Mean [7]: 0.5276

SMILES: CC(C)(COP(=O)(O)OP(=O)(O)OCC1OC(n2cnc3c(N)ncnc32)C(O)C1OP(=O)(O)O)C(O)C(=O)NCCC(=O)NCCSC(=O)CC(=O)O (stereo not shown) [Mal-CoA, malonyl-CoA]
- Km [8]: 220 to 520 µM
- pIC50 [9]: 3.64
- In vitro mTORC1 assay, p-4E-BP1(T37/46)/4E-BP1, Mean ([9]; Fig. 8f, compound 0.01 mM, relative to 0 mM): 0.741
- In vitro mTORC1 assay, p-4E-BP1(T37/46)/4E-BP1, Mean ([9]; Fig. 8f, compound 0.05 mM, relative to 0 mM): 0.7667
- In vitro mTORC1 assay, p-4E-BP1(T37/46)/4E-BP1, Mean ([9]; Fig. 8f, compound 0.1 mM, relative to 0 mM): 0.821
- In vitro mTORC1 assay, p-4E-BP1(T37/46)/4E-BP1, Mean ([9]; Fig. 8f, compound 0.5 mM, relative to 0 mM): 0.5457
- In vitro mTORC1 assay, p-4E-BP1(T37/46)/4E-BP1, Mean ([9]; Fig. 8f, compound 1 mM, relative to 0 mM): 0.5376
- In vitro mTORC1 assay, p-4E-BP1(T37/46)/4E-BP1, Mean ([9]; Fig. 8f, compound 2.5 mM, relative to 0 mM): 0.4196
- In vitro mTORC1 assay, p-4E-BP1(T37/46)/4E-BP1, Mean ([9]; Fig. 8f, compound 5 mM, relative to 0 mM): 0.4175
- In vitro mTORC1 assay, p-4E-BP1(T37/46)/4E-BP1, Mean ([9]; Fig. 8j, Mal-CoA 2 mM, ATP 0 uM, relative to control at 500 uM ATP): 0.1107
- In vitro mTORC1 assay, p-4E-BP1(T37/46)/4E-BP1, Mean ([9]; Fig. 8j, Mal-CoA 2 mM, ATP 25 uM, relative to control at 500 uM ATP): 0.133
- In vitro mTORC1 assay, p-4E-BP1(T37/46)/4E-BP1, Mean ([9]; Fig. 8j, Mal-CoA 2 mM, ATP 100 uM, relative to control at 500 uM ATP): 0.267
- In vitro mTORC1 assay, p-4E-BP1(T37/46)/4E-BP1, Mean ([9]; Fig. 8j, Mal-CoA 2 mM, ATP 500 uM, relative to control at 500 uM ATP): 0.681
- In vitro mTORC1 assay, p-4E-BP1(T37/46)/4E-BP1, Mean ([9]; Fig. 8j, Mal-CoA 2 mM, ATP 2000 uM, relative to control at 500 uM ATP): 1.021
- In vitro mTORC1 assay, p-4E-BP1(T37/46)/4E-BP1, Mean ([9]; Fig. 8j, Mal-CoA 2 mM, ATP 5000 uM, relative to control at 500 uM ATP): 1.149
- pKi ([9]; read-out: Ki (ATP-competitive, human mTORC1)): 3.11
- pIC50 [10]: 2.52
- In vitro kinase assay Src, p-Glo(Y316)/Glo, Mean ([10]; Mal-CoA 0.1 mM): 0.9108
- In vitro kinase assay Src, p-Glo(Y316)/Glo ([10]; Mal-CoA 0.1 mM): 1.011 and 0.7856 and 0.936
- In vitro kinase assay Src, p-Glo(Y316)/Glo, Mean ([10]; Mal-CoA 0.5 mM): 0.93
- In vitro kinase assay Src, p-Glo(Y316)/Glo ([10]; Mal-CoA 0.5 mM): 1.127 and 0.8462 and 0.8162
- In vitro kinase assay Src, p-Glo(Y316)/Glo, Mean ([10]; Mal-CoA 1 mM): 0.7653
- In vitro kinase assay Src, p-Glo(Y316)/Glo ([10]; Mal-CoA 1 mM): 0.7803 and 0.7329 and 0.7827
- In vitro kinase assay Src, p-Glo(Y316)/Glo, Mean ([10]; Mal-CoA 2.5 mM): 0.5664
- In vitro kinase assay Src, p-Glo(Y316)/Glo ([10]; Mal-CoA 2.5 mM): 0.5574 and 0.682 and 0.4598
- In vitro kinase assay Src, p-Glo(Y316)/Glo, Mean ([10]; Mal-CoA 5 mM): 0.4682
- In vitro kinase assay Src, p-Glo(Y316)/Glo ([10]; Mal-CoA 5 mM): 0.5068 and 0.3824 and 0.5156
- In vitro kinase assay Snf1, Mean ([11]; Mal-CoA 0.073 mM): 1.243
- In vitro kinase assay Snf1 ([11]; Mal-CoA 0.073 mM): 0.8487 and 1.878 and 1.003
- In vitro kinase assay Snf1, Mean ([11]; Mal-CoA 0.22 mM): 0.975
- In vitro kinase assay Snf1 ([11]; Mal-CoA 0.22 mM): 1.111 and 0.9316 and 0.8826
- In vitro kinase assay Snf1, Mean ([11]; Mal-CoA 2 mM): 0.9179
- In vitro kinase assay Snf1 ([11]; Mal-CoA 2 mM): 1.023 and 1.058 and 0.6736
- In vitro kinase assay Snf1, Mean ([11]; Mal-CoA 6 mM): 0.7128
- In vitro kinase assay Snf1 ([11]; Mal-CoA 6 mM): 0.7619 and 0.8143 and 0.5621
- In vitro kinase assay Snf1, Mean ([11]; Mal-CoA […]): 0.967
- inhibition of Snf1 in IVK assay ([11]; purified Snf1, His-tagged Mig1 substrate, IC50 not calculated): does not inhibit; also recorded: did not demonstrate substantial inhibitory effects
